Tested on: adipose tissue
Assay: addition of hyaluronic acid to liposuction infiltration solution
Format: in vivo
Conditions: added to infiltration solution
Protocol: Hyaluronic acid can also be added to infiltration solutions which are injected into the tissue prior to a liposuction. These infiltration solutions are usually isotonic or hypotonic salt solutions which can contain additives, for example blood vessel-contracting and/or pain-reducing additives, such as noradrenaline, adrenaline, lidocaine, prilocalne, bicarbonate, corticosteroids, etc. Hyaluronic acid (crosslinked and/or uncrosslinked hyaluronic acid) is advantageously added to these solutions at concentrations of from 0.001 to 1.0% (wt/vol), preferably of from 0.01 to 0.5% (wt/vol), e.g. of about 0.025% (wt/vol). […] Furthermore, structures in the adipose tissue which are worth conserving, such as blood vessels, nerves or connective tissue bands, are spared. Adding the hyaluronic acid also makes the process of liposuction markedly more atraumatic when compared with the conventional procedure. […] This also leads to a reduction in the tissue trauma. All in all, adding hyaluronic acid to the infiltration solution protects the remaining adipose tissue in the body and results in the adipose tissue aspirate being withdrawn in a gentler manner.
This is of importance insofar as adipose tissue aspirates can be used as endogenous transplants. […]

hyaluronic acid
survival of fat cells in the aspirate: improves the survival of fat cells | growth of transferred tissue at the recipient site (aspirate transplanted): grow more strongly

From patent US7807656B2, “Pharmaceutical applications of hyaluronic acid preparations” (priority 2001, dated 2010)
